Measured values reported in patent US12409200B2, “Composition for treating hair loss or promoting hair growth comprising milk thistle flower extract as an active ingredient” (BioSpectrum, Inc., priority 2021, dated 2025).

Test system: human skin
Assay: Human skin safety test: repeated insult patch test
Type: in vivo
Settings: for Number of subjects showing reaction ±: grade ±
Procedure: In order to confirm that the extract of seed-removed milk thistle flowers according to the present invention is safe for human skin, a skin safety verification test was performed. To this end, a repeated insult patch test was conducted. Nourishing creams containing the seed-removed milk thistle extract of Example 1 in amounts of 0.1%, 0.5% and 1%, respectively, were prepared. Specifically, a water phase containing purified water, triethanolamine and propylene glycol was dissolved by heating to 70° C. and then emulsified by adding a solution obtained by dissolving beeswax, liquid paraffin, an oil component, an emulsifier and a preservative by heating to 70° C. After completion of emulsification, the solution was cooled to 45° C., and the seed-removed milk thistle flower extract was added thereto in amounts of 0.1%, 0.5% and 1% and dispersed therein, followed by cooling to 30° C. As the content of the extract of seed-removed milk thistle flowers was increased from 0.1% to 0.5% and 1%, the content of liquid paraffin was decreased from 9.91% to 9.51% and 9.01%, respectively, thereby preparing nourishing creams. Using the nourishing creams prepared as described above, a repeated insult patch test was conducted on the upper arm areas of 30 healthy adults every other day for a total of 9 times for 24 hours per time to determine whether the extract of seed-removed milk thistle flowers irritated the skin. The patch test was performed using a Finn chamber (Epitest Ltd., Finland). 15 μl of each of the external skin preparations was dropped into the chamber, and then the patch test was performed. Average degree of reaction=[[(reaction index×degree of reaction)/(total number of subjects×highest score (4)]×100]÷number of tests (9) [Equation 2] In the degree of reaction, ± represents a score of 1 point, […], and ++ represents a score of 4. When the average degree of reaction is less than 3, the corresponding composition is determined to be safe.

CC(C)=CCC/C(C)=C/CC/C(C)=C/CC/C=C(\C)CC/C=C(\C)CCC=C(C)C [Control (squalene), squalene]
Average degree of reaction (30 healthy adults, upper arm, 9 patch tests of 24 hours, Equation 2, less than 3 = safe): 0.18 | Number of subjects showing reaction ± (Week 1, 1st test): 1 | Number of subjects showing reaction ± (Week 1, 2nd test): 1
